Measurements from patent publication US20230146455A1, “TREATMENT OF INFLAMMATORY DISEASES WITH PEPTIDES AND PHARMACEUTICAL COMPOSITIONS” (Yuyu Pharma, Inc., priority 2020, published 2023).
Where “and” joins values, the source holds several entries; their conditions need not be identical. Equal values may be shown once. Where a SMILES comes first, the peptide text is derived from it. [ ]: non-standard residue; d: D form. Hyp = O=C(O)[C@@H]1C[C@@H](O)CN1

Legend:
IL-1 alpha = experiment: Example 9 Luminex, LPS hPBMCs: IL-1 alpha; format: cell-based, human; details: at 100.iM; LPS 5 ug/mL 24 hrs
Procedure: (§1) Treatment Human PBMCs were pretreated with YY-101, YDE-011 and YDE-043 or reference compound; Xiidra® at various concentration (ranging from 1 nM to 100 uM) for 2 h before stimulation. An equal volume of 0.5% DMSO was used as a vehicle control. Then, the cells were treated with LPS at 5 ug/ml. The supernatants from treated cells were harvested at 24 h and placed in a 96 well for Luminex cytokine & chemokine profiling using a Luminex 200 multiplex assay (Luminex; R&D system, USA).
(§2) The main study arm with triplicate wells per group in a 24-well plate: • 1. Blank • 2. PBMC: 0.5% DMSO • 3. PBMC+LPS (5 ug/ml) • 4. PBMC+YY-101 100 uM • 5. PBMC+YY-101 10 uM • 6. PBMC+YY-101 1 uM • 7. PBMC+YY-101 0.1 uM • 8. PBMC+YY-101 0.01 uM • 9. PBMC+LPS (5 ug/ml)+Xiidra®100 uM • 10. PBMC+LPS (5 ug/ml)+Xiidra® 10 uM • 11. PBMC+LPS (5 ug/ml)+Xiidra® 1 uM • 12. PBMC+LPS (5 ug/ml)+Xiidra®0.1 uM • 13. PBMC+LPS (5 ug/ml)+Xiidra®0.01 uM • 14. PBMC+LPS (5 ug/ml)+Xiidra®0.001 uM • 15. PBMC+LPS (5 ug/ml)+YY-101 100 uM • 16. PBMC+LPS (5 ug/ml)+YY-101 10 uM • 17. PBMC+LPS (5 ug/ml)+YY-101 1 uM • 18. PBMC+LPS (5 ug/ml)+YY-101 0.1 uM • 19. PBMC+LPS (5 ug/ml)+YY-101 0.01 uM • 20. PBMC+LPS (5 ug/ml)+YY-101 0.001 uM • 21. PBMC+LPS (5 ug/ml)+YDE-011 100 uM • 22. PBMC+LPS (5 ug/ml)+YDE-011 10 uM • 23. PBMC+LPS (5 ug/ml)+YDE-011 1 uM • 24. PBMC+LPS (5 ug/ml)+YDE-011 0.1 uM • 25. PBMC+LPS (5 ug/ml)+YDE-011 0.01 uM • 26. PBMC+LPS (5 ug/ml)+YDE-011 0.001 uM • 27. PBMC+LPS (5 ug/ml)+YDE-043 100 uM • 28. PBMC+LPS (5 ug/ml)+YDE-043 10 uM • 29. PBMC+LPS (5 ug/ml)+YDE-043 1 uM • 30. PBMC+LPS (5 ug/ml)+YDE-043 0.1 uM • 31. PBMC+LPS (5 ug/ml)+YDE-043 0.01 uM • 32. PBMC+LPS (5 ug/ml)+YDE-043 0.001 uM
(§3) Multiplex assay was used to measure 30 cytokines and chemokines. The 1:2, 1:10 and 1:200 diluted cell supernatant and serial dilution of the standard were dispensed into a 96 well plate at 50 ul/well. Then, the pre-mixed cocktail of antibody-coated magnetic beads was dispensed at 50 ul/well and incubated at room temperature for 2 h in a horizontal orbital microplate shaker at 800±500 rpm. The beads were washed using a magnetic device to prevent loss. The biotin-antibody was dispensed in 50 ul of each well and incubated at room temperature for 1 h in a shaker at 800±500 rpm. After washing, streptavidin-PE was added at 50 ul/well and incubated at room temperature for 30 min in a shaker under the same conditions. Finally, after washing, wash buffer (100 ul/well) was added to the plate and incubated in a shaker for 2 min. The Luminex™ 200 setting were set according to the manufacturer's protocol. The data was calculated with a standard five-parameter logistic nonlinear regression analysis of the data (xPonent software 4.2, USA). The levels of cytokine/chemokine are normalized to the live cell counts (1×10^5 cells/mL) and presented as concentrations per mL (pg/mL or ng/mL).

MMP-9 = experiment: Example 9 Luminex, LPS hPBMCs: MMP-9; format: cell-based, human
Procedure: as §1, §2, §3

[1] = PBMC + 0.01 uM, no LPS, single replicates
[2] = PBMC + 0.1 uM, no LPS, single replicates
[3] = PBMC + 1 uM, no LPS, single replicates
[4] = PBMC + 10 uM, no LPS, single replicates
[5] = PBMC + 100 uM, no LPS, single replicates
[6] = PBMC + LPS(5 ug/ml) + 0.001 uM, Mean
[7] = PBMC + LPS(5 ug/ml) + 0.001 uM, single replicates
[8] = PBMC + LPS(5 ug/ml) + 0.01 uM, Mean
[9] = PBMC + LPS(5 ug/ml) + 0.01 uM, single replicates
[10] = PBMC + LPS(5 ug/ml) + 0.1 uM, Mean
[11] = PBMC + LPS(5 ug/ml) + 0.1 uM, single replicates
[12] = PBMC + LPS(5 ug/ml) + 1 uM, Mean
[13] = PBMC + LPS(5 ug/ml) + 1 uM, single replicates
[14] = PBMC + LPS(5 ug/ml) + 10 uM, Mean
[15] = PBMC + LPS(5 ug/ml) + 10 uM, single replicates
[16] = PBMC + LPS(5 ug/ml) + 100 uM, Mean
[17] = PBMC + LPS(5 ug/ml) + 100 uM, single replicates

For `CC(C)C[C@H](NC(=O)CNC(=O)[C@H](CC(=O)O)NC(=O)[C@H](CCC(N)=O)NC(=O)CNC(=O)[C@@H]1C[C@@H](O)CN1)C(=O)N[C@@H](C)C(=O)NCC(=O)N1CCC[C@H]1C(=O)N[C@@H](CCCCN)C(=O)O` [YY-101] (H-[Hyp]GQDGLAGPK-OH; N-terminus and C-terminus assumed), the “LPS-induced IL-1a levels (in words)” value (IL-1 alpha) was “further increased”, the “MMP-9 Concentration” value (MMP-9; PBMC + 0.01 uM, no LPS, Mean) was 6947.7 pg/mL and the MMP-9 conc/live cell (MMP-9; PBMC + 0.01 uM, no LPS, Mean) was 1395.6 pg/10^5. For the same compound, the “MMP-9 Concentration” value (MMP-9; [1]) was 6464.0 pg/mL and 7431.3 pg/mL, the MMP-9 conc/live cell (MMP-9; [1]) was 1243.1 pg/10^5 and 1548.2 pg/10^5 and the “MMP-9 Concentration” value (MMP-9; PBMC + 0.1 uM, no LPS, Mean) was 7041.0 pg/mL. The MMP-9 conc/live cell (MMP-9; PBMC + 0.1 uM, no LPS, Mean) was 1365.4 pg/10^5, the “MMP-9 Concentration” value (MMP-9; [2]) was 5521.9 pg/mL and 8560.2 pg/mL and the MMP-9 conc/live cell (MMP-9; [2]) was 1255.0 pg/10^5 and 1475.9 pg/10^5. The “MMP-9 Concentration” value (MMP-9; PBMC + 1 uM, no LPS, Mean) was 7016.7 pg/mL, the MMP-9 conc/live cell (MMP-9; PBMC + 1 uM, no LPS, Mean) was 1275.8 pg/10^5 and the “MMP-9 Concentration” value (MMP-9; [3]) was 6666.8 pg/mL and 7366.6 pg/mL. For the same compound, the MMP-9 conc/live cell (MMP-9; [3]) was 1212.2 pg/10^5 and 1339.4 pg/10^5, the “MMP-9 Concentration” value (MMP-9; PBMC + 10 uM, no LPS, Mean) was 10460.4 pg/mL and the MMP-9 conc/live cell (MMP-9; PBMC + 10 uM, no LPS, Mean) was 1662.8 pg/10^5. For the same compound, the “MMP-9 Concentration” value (MMP-9; [4]) was 13551.9 pg/mL and 7369.0 pg/mL, the MMP-9 conc/live cell (MMP-9; [4]) was 2117.5 pg/10^5 and 1208.0 pg/10^5 and the “MMP-9 Concentration” value (MMP-9; PBMC + 100 uM, no LPS, Mean) was 5317.6 pg/mL. For the same compound, the MMP-9 conc/live cell (MMP-9; PBMC + 100 uM, no LPS, Mean) was 799.8 pg/10^5, the “MMP-9 Concentration” value (MMP-9; [5]) was 6000.1 pg/mL and 4635.0 pg/mL and the MMP-9 conc/live cell (MMP-9; [5]) was 937.5 pg/10^5 and 662.1 pg/10^5. The “MMP-9 Concentration” value (MMP-9; [6]) was 182.3 pg/mL, the MMP-9 conc/live cell (MMP-9; [6]) was 28.3 pg/10^5 and the “MMP-9 Concentration” value (MMP-9; [7]) was 152.0 pg/mL and 155.2 pg/mL and 239.8 pg/mL. For the same compound, the MMP-9 conc/live cell (MMP-9; [7]) was 26.7 pg/10^5 and 21.9 pg/10^5 and 36.3 pg/10^5, the “MMP-9 Concentration” value (MMP-9; [8]) was 150.9 pg/mL and the MMP-9 conc/live cell (MMP-9; [8]) was 24.5 pg/10^5. The “MMP-9 Concentration” value (MMP-9; [9]) was 161.5 pg/mL and 155.2 pg/mL and 135.8 pg/mL, the MMP-9 conc/live cell (MMP-9; [9]) was 25.2 pg/10^5 and 25.9 pg/10^5 and 22.3 pg/10^5 and the “MMP-9 Concentration” value (MMP-9; [10]) was 114.6 pg/mL. For the same compound, the MMP-9 conc/live cell (MMP-9; [10]) was 19.7 pg/10^5, the “MMP-9 Concentration” value (MMP-9; [11]) was 102.0 pg/mL and 119.2 pg/mL and 122.6 pg/mL and the MMP-9 conc/live cell (MMP-9; [11]) was 16.5 pg/10^5 and 22.9 pg/10^5 and 19.8 pg/10^5. The “MMP-9 Concentration” value (MMP-9; [12]) was 167.7 pg/mL, the MMP-9 conc/live cell (MMP-9; [12]) was 25.8 pg/10^5 and the “MMP-9 Concentration” value (MMP-9; [13]) was 155.2 pg/mL and 161.5 pg/mL and 186.3 pg/mL. For the same compound, the MMP-9 conc/live cell (MMP-9; [13]) was 24.6 pg/10^5 and 22.8 pg/10^5 and 30.1 pg/10^5, the “MMP-9 Concentration” value (MMP-9; [14]) was 157.2 pg/mL and the MMP-9 conc/live cell (MMP-9; [14]) was 24.0 pg/10^5. The “MMP-9 Concentration” value (MMP-9; [15]) was 161.5 pg/mL and 167.8 pg/mL and 142.4 pg/mL, the MMP-9 conc/live cell (MMP-9; [15]) was 26.9 pg/10^5 and 26.2 pg/10^5 and 18.7 pg/10^5 and the “MMP-9 Concentration” value (MMP-9; [16]) was 96.1 pg/mL. The MMP-9 conc/live cell (MMP-9; [16]) was 16.5 pg/10^5, the “MMP-9 Concentration” value (MMP-9; [17]) was 98.5 pg/mL and 102.0 pg/mL and 87.7 pg/mL and the MMP-9 conc/live cell (MMP-9; [17]) was 15.6 pg/10^5 and 16.5 pg/10^5 and 17.5 pg/10^5.
